# Source: article PMC6099102, “Effect of the Nature of Donor Atoms on the Thermodynamic, Kinetic and Relaxation Properties of Mn(II) Complexes Formed With Some Trisubstituted 12-Membered Macrocyclic Ligands” (Frontiers in Chemistry, 2018)
# Like-named read-outs stand apart in the source and are kept apart here. Marks after values point to notes of the source that are not given here.
# Assays:
# [1] = Protonation constants of the ligands by pH-potentiometric titration; format: physicochemical; conditions: for Σ log K2H: log K1H + log K2H
# Procedure: (§1) The concentration of the ligand solutions was determined by pH-potentiometric titration in the presence and absence of an excess (5–10 fold) of MnCl2. For determining the protonation constants of the investigated ligands, pH-potentiometric titrations were made by means of 0.2 M standardized NaOH in 2 and 3 mM ligand solutions in the pH-range of 1.75–11.85. All equilibrium measurements were performed at a constant 0.15 M NaCl ionic strength at 25 °C. The protonation and the stability constants of the Mn(II) complexes were determined by pH-potentiometric titrations (DOTP, DO3A, PCTA, ODO3A, DO3P) while owing to the slow formation rates of Mn(II) complexes formed with amide type ligands, the stability constants of DOTAM, DOTMA, DO3AM^H, PC3AM^H, PC3AM^Gly, PC3AM^Pip complexes were determined by out-of-cell pH-potentiomertry in combination with ^1H relaxometry. The metal-to-ligand concentration ratio in the solutions was 1:1. For the calculation of protonation constants of the ligands and the log KMnL and log KMnLHi values of the complexes, mL–pH data pairs (50–180), obtained in the pH range of 1.75–11.85 or r1obs-pH data pairs (10–15 batch samples) obtained in the pH range of 2–4.5 were used (the samples were equilibrated for 4–7 days). The equilibrium constants characterizing the deprotonation that occurs at basic pH were determined from the data obtained via direct pH-potentiometric titrations performed on the pre-formed complexes.
# (§2) The pH-potentiometric titrations were carried out with a Methrohm 888 Titrando titration workstation using a Metrohm-6.0233.100 combined electrode. The samples (6.00 mL) were thermostated at 25 °C. The samples were stirred and kept under inert gas (N2) to avoid the effect of CO2. KH-phthalate (pH = 4.005) and borax (pH = 9.177) buffers were used for the pH-calibration. The method proposed by Irving et al. was used for the calculation of H^+ concentrations from the measured pH values (Irving et al., [1967]). A 0.01 M HCl (I = 0.15 M set with NaCl) solution was titrated with standardized NaOH solution of known concentration (approx. 0.2 M). The correction factor obtained as difference of calculated pH and measured pH values was used to calculate the [H^+] in the samples. The ionic product of water was determined from the same titrations (HCl/NaOH) from the data collected in the pH range of 11.20–11.85.
# The protonation and complexation equilibria of the macrocyclic ligands and their Mn(II) complexes have been studied by pH-potentiometric and relaxometric methods in the presence of 0.15 M NaCl whose ionic strength mimics the physiological conditions. The protonation constants of the ligands were evaluated by fitting the pH-V(mL) base data pairs collected in the pH-potentiometric titrations. The protonation equilibria of the ligands can be described by Equation (2). (a comparison of previously published log K^H data available in the Supplementary Material) together with the constants of H4DOTA, cis- and trans-H2DO2A derivatives given for comparison. (2) KiH=[HiL]/[Hi-1L][H^+],i=1,2,…
# [2] = Stability and protonation constants and pMn of the Mn(II) complexes (pH-potentiometry and/or 1H relaxometry); format: physicochemical; conditions: I = 0.15 M NaCl, 25 °C; for pMn: calculated at pH = 7.4, cM = cL = 10^−5 M; for log KML: stability constant of the Mn(II) complex; for log KMLH: protonation constant of the Mn(II) complex; for log KMHLH: second protonation constant of the Mn(II) complex; for log KMH2LH: third protonation constant of the Mn(II) complex; for log KMLOH: ternary hydroxido complex of Mn(II)
# Procedure: as §1, §2
# The relaxometric data were collected using a Bruker Minispec MQ20 NMR relaxometer. […] A datapoint plotted on figures represents an average of 5–6 T1 measurements (Figures S3–S9 in Supplementary Material). The data were fitted by using the molar r1p relaxivity value of the MnCl2 ([…] at 0.49 T and 25 °C). The equilibrium constants were calculated using the PSEQUAD program (Zékány and Nagypál, [1985]).
# In order to gain information on the thermodynamic stability of the Mn(II) complexes, samples containing the metal and ligand in 1 to 1 molar ratio were studied by pH potentiometry or ^1H-relaxometry and in some cases by a combination of the two methods. The titration data were fitted by assuming the existence of [M(L)] and some protonated species ([M(HiL)]) at lower pH values. In some cases to fit the data obtained at higher pH, the formation of ternary hydroxido complexes ([M(L)(OH)]) were also included in the equilibrium model. The stability constants (KML) and the various protonation forms (KMHiL) of ML metal chelates are defined by Equations (3)–(5). However, a comparison of the stabilities of different complexes solely on the basic of their stability constants might be misleading because of the differences in ligand basicities. […] The pMn value accounts for the effect of proton competition (ligand basicity and complex protonation) on the stability constant essentially offering the same information as the conditional stability constant. Higher pMn values indicate a higher chelate stability at specified conditions. […]
# [3] = I = 0.1 M KCl, cited from earlier work; for Σ log K2H: log K1H + log K2H
# [4] = cited from earlier work; for pMn: pH = 7.4, cM = cL = 10^−5 M
# [5] = Dissociation kinetics of the Mn(II) complexes (acid catalyzed dissociation, metal or ligand exchange reactions); format: physicochemical; conditions: replacement of >NH in DO3A by etheric oxygen
# Procedure: The dissociation reactions were followed by UV-vis spectrophotometry at 269 nm for the pyclen derivatives or at 300 nm for other complexes in the pH range of 3.6–5.0 for the exchange reactions with Cu(II) and up to pH = 6.0 when Zn(II) was used as a ligand scavenger. The acid catalyzed dissociation reactions were performed in the HCl concentration range of 0.05–1.0 M. The concentration of the complexes in the samples was 0.25 mM, while the concentration of the exchanging metal ion in the metal initiated transchelation reactions was 10–40 times higher to ensure pseudo-first-order conditions. Relaxometry was used to follow the transchelation reactions of [Mn(DOTAM)]^2+, [Mn(DO3AM^H)]^2+, [Mn(DO3A)]^−, [Mn(PCTA)]^− and [Mn(ODO3A)]^− with Cu(II)/Zn(II) ions in the pH range of 3.6–5.5 (Figures S17–S19 in Supplementary Material). The concentration of the complexes in these samples was set to 1.0–2.0 mM to achieve relatively large change during the dissociation reaction. […] The temperature was maintained at 25 °C and the ionic strength of the solutions was kept constant at 0.15 M with NaCl. N,N′-dimethyl- (DMP) and N-methyl-piperazine (NMP) buffers (log K2H = 4.18 and 4.90 at 25 °C and I = 0.15 M NaCl, respectively) were used at 0.05 M concentration to keep the pH constant. The pseudo-first-order rate constants (kobs) were calculated by fitting the absorbance or relaxivity-time data pairs to Equation (1) (1) Xt=(X0-Xe)e^-kobst+Xe where Xt, X0, and Xe are the absorbance or relaxivity at time t, at the start and at equilibrium, respectively. The calculations were performed with the computer program Micromath Scientist, version 2.0 (Salt Lake City, UT, USA) using a standard least-squares procedure.
# The kinetic inertness of the Mn(II) complexes is the other important parameter for the complexes considered for use in vivo. The inertness of Mn(II) complexes formed with trisubstituted 12-memberd macrocyclic ligands were characterized either by studying the rates of acid catalyzed dissociation or by studying transmetallation reactions occurring between the complexes and a suitable exchanging metal ion such as Zn(II) or Cu(II). The demetallation reactions of labile complexes were performed at high pH by following the ligand exchange reactions with trans-CDTA and DTPA ligands. The demetallation reactions were studied in the presence of a large Cu(II)/Zn(II)/trans-CDTA/DTPA excess or by using high acid concentration in order to ensure pseudo-first-order conditions (Equation 6). Scheme 1 outlines all the possible dissociation pathways for the Mn(II) complexes. […] The reactions of the released Mn(II) and L ligand with the exchanging L' and M' reactants are assumed to be very rapid.
# The rate of dissociation can be expressed by the Equation (6), where kobs is the pseudo-first-order rate constant and [Mn(L)]t is the total concentration of the species containing [Mn(L)] complex. The [Mn(L)]t will differ slightly depending on the experimental conditions (in the presence of a large metal or ligand excess). As [Mn(L)]t = [Mn(L)] + [Mn(HL)] + [Mn(H2L)] + [Mn(L)M] + [Mn(L)(L')] + [Mn(HL)(L')] for reactions performed at high pH (in the pH range of 3.0–5.0 often applied in Cu(II) exchange reactions) will involve fewer protonated species while the acid catalyzed dissociation reactions run in the strongly acidic media (0.1–1.0 M acid concentration range) predominantly contain protonated species ([Mn(L)]t = [Mn(L)]+[Mn(HL)]+[Mn(H2L)]). (6) -d[MnL]t/dt=kobs[MnL]t
# By taking into account the various complex species and the possible reaction pathways as well as the protonation and stability constants of the reactive intermediates, the following equation (Equation 7) can be derived to describe the rates of dissociation. […]
# [6] = buffer, 25 °C and I = 0.15 M NaCl
# [7] = ligand protonation constant, I = 0.15 M NaCl, 25 °C
# [8] = Mn(II) complex, 1H-relaxometry, ref Tircsó and Woods (in preparation)
# [9] = Mn(II) complex, I = 0.1 M KCl, ref Forgács et al., [2016]
smiles,measurement,setting,value
"CN1CCN(C)CC1 [DMP, reference compound]",log K2H,[1]; [6],4.18
NC(=O)CN1CCNCCN(CC(N)=O)CCN(CC(N)=O)CC1 [DO3AM^H],log K1H,[1]; [7],9.40 (5)
same,log K2H,[1]; [7],6.28 (8)
same,Σ log K2H,"[1]; I = 0.15 M NaCl, 25 °C",15.68
same,pMn,[2],7.32
same,log KML,[2],11.69 (2)
NC(=O)CN1CCN(CC(N)=O)CCN(CC(N)=O)CCN(CC(N)=O)CC1 [DOTAM],log K1H,[1]; [7],7.31 (1)
same,log K2H,[1]; [7],6.07 (1)
same,Σ log K2H,"[1]; I = 0.15 M NaCl, 25 °C",13.38
same,pMn,[2],8.60
same,log KML,[2],11.96 (1)
CC(C(=O)O)N1CCN(C(C)C(=O)O)CCN(C(C)C(=O)O)CCN(C(C)C(=O)O)CC1 (centres unmarked) [DOTMA],log K1H,"[3]; ref Aime et al., [2011]",11.72
same,log K2H,"[3]; ref Aime et al., [2011]",9.06
same,log K3H,"[3]; ref Aime et al., [2011]",4.74
same,log K4H,"[3]; ref Aime et al., [2011]",5.59
same,log K5H,"[3]; ref Aime et al., [2011]",1.92
same,Σ log K2H,"[3]; ref Aime et al., [2011]",20.78
same,log KML,[4]; [8],18.37^[a]
same,log KMLH,[4]; [8],4.56^[a]
same,pMn,[4]; ref Tircsó and Woods (in preparation),8.69
O=P(O)(O)CN1CCN(CP(=O)(O)O)CCN(CP(=O)(O)O)CCN(CP(=O)(O)O)CC1 [DOTP],log K1H,"[1]; ligand protonation constant by 1H- and 31P-NMR, I = 0.15 M NaCl, 25 °C",13.6 (2)^[a]
same,log K2H,[1]; [7],12.23 (3)
same,log K3H,[1]; [7],8.63 (5)
same,log K4H,[1]; [7],7.45 (4)
same,log K5H,[1]; [7],5.84 (5)
same,log K6H,[1]; [7],5.02 (5)
same,Σ log K2H,"[1]; I = 0.15 M NaCl, 25 °C",25.83
same,pMn,[2],6.43
same,log KMLH,[2],8.09 (1)
same,log KMHLH,[2],7.79 (1)
same,log KML,[2],18.98 (1)
same,log KMH2LH,[2],6.74 (1)
"CN1CCNCC1 [NMP, N-methyl-piperazine, reference compound]",log K2H,[1]; [6],4.90
O=C(O)CN1CCOCCN(CC(=O)O)CCN(CC(=O)O)CC1 [ODO3A],log K1H,[1]; [7],8.74 (2)
same,log K2H,[1]; [7],7.58 (2)
same,log K3H,[1]; [7],3.99 (3)
same,log K4H,[1]; [7],2.39(3)
same,Σ log K2H,"[1]; I = 0.15 M NaCl, 25 °C",16.32
same,pMn,[2],8.57
same,log KMLH,[2],2.77 (5)
same,log KML,[2],13.88 (1)
same,increase in the k1 value of the Mn(II) complex relative to DO3A,[5],50 fold
O=C(O)CNC(=O)CN1CCN(CC(=O)NCC(=O)O)Cc2cccc(n2)CN(CC(=O)NCC(=O)O)CC1 [PC3AM^Gly],log K1H,[1]; [7],8.85 (1)
same,log K2H,[1]; [7],4.55 (1)
same,log K3H,[1]; [7],3.81 (1)
same,log K4H,[1]; [7],3.21 (1)
same,log K5H,[1]; [7],2.80 (1)
same,log K6H,[1]; [7],1.38 (1)
same,Σ log K2H,"[1]; I = 0.15 M NaCl, 25 °C",13.40
same,pMn,[2],8.37
same,log KMLH,[2],3.98 (1)
same,log KMHLH,[2],3.14 (1)
same,log KML,[2],13.20 (1)
same,log KMLOH,[2],10.67 (2)
same,log KMH2LH,[2],2.87 (1)
O=C(CN1CCN(CC(=O)N2CCCCC2)Cc2cccc(n2)CN(CC(=O)N2CCCCC2)CC1)N1CCCCC1 [PC3AM^Pip],log K1H,[1]; [7],8.74 (1)
same,log K2H,[1]; [7],5.77 (2)
same,log K3H,[1]; [7],1.42 (9)
same,Σ log K2H,"[1]; I = 0.15 M NaCl, 25 °C",14.51
same,pMn,[2],8.86
same,log KML,[2],14.05 (2)
same,log KMLOH,[2],11.63 (2)
CN(C)C(=O)CN1CCN(CC(=O)N(C)C)CCN(Cc2ccccc2)CCN(Cc2ccccc2)CC1 [cis-Bz2DO2AM^Me2],log K1H,"[3]; ref Forgács et al., [2017]",11.11
same,log K2H,"[3]; ref Forgács et al., [2017]",8.22
same,Σ log K2H,"[3]; ref Forgács et al., [2017]",19.33
same,log KML,[4]; [9],11.54
same,log KMLOH,[4]; [9],10.44
same,pMn,"[4]; I = 0.1 M KCl, ref Forgács et al., [2016]",6.00
